What was measured:
Assay type in all cases: cell-based
MMP-13 = assay: ELISA for MMP-13 in conditioned medium of human chondrocytes; settings: 48 hours; CB12-II 50 μM, TNF-α 50 ng/ml
Method: (§1) First-passaged normal human chondrocytes isolated by the method described above and cultured at high density (2×10^5 cells/cm^2) were trypsinized and resuspended in Medium A containing 1% FCS at a density of 10^6 cells/ml. Then, 200 μl of the cell suspension was each plated onto round-bottomed 96-well culture plate. On the next day after plating, CB12-II at 50 μM, USP at 50 μM, and TNF-α at 50 ng/ml were added to the culture media, and the culture was maintained for 24-48 hours. Conditioned media were collected and subjected to ELISA assay. The ELISA kits (BIOTRAK) for MMP-1 and MMP-13 were purchased from Amersham Pharmacia Biotech (Piscataway, N.J.). Measurement range was 6.25-100 ng/ml for MMP-1 and 0.094-3 ng/ml for MMP-13. Sensitivity for the assay was 1.7 ng/ml for MMP-1 and 0.7 ng/ml for MMP-13.
(§2) Protein levels of MMP-1 and MMP-13 were also tested by incubating isolated human chondrocytes for 48 hours in high density culture (10^6 cells/ml) with CB12-II, negative control peptide USP, or cytokine TNF-α, as discussed above. MMP-1 and MMP-13 secretion into medium from the cells was measured using ELISA (see FIGS. 9A and 9B).

[1] = tested on: bovine articular cartilage explant; assay: Proteoglycan (GAG) content and release in bovine explant culture; settings: subpeptides at 1 and 10 μM
Method: The cartilages were prepared as previously described (Dahlberg, L. et al. (2000) supra. In brief, the cartilage samples were washed three times with basal culture medium containing Dulbecco's modified Eagle's medium (DMEM; Gibco BRL, Life Technologies, Grand Island, N.Y.) with 20 mM HEAPS buffer (pH 7.4) (Gibco BRL), 45 mM NaHCO3, 100 units/ml penicillin, 100 μg/ml streptomycin and 150 μg/ml gentamycin sulphate (Medium A). Full-depth cartilage slices from a single area, around 20 mm×20 mm were cut vertical to the articular surface and then into cubes of approximately 2 mm×2 mm (5-7 cubes were randomly obtained and wet weights about 50-70 mg/well determined). The cartilage was assigned to 48 well plate (ca 40 mg/well) and kept in Medium A supplemented with 50 μg/ml ascorbic acid, 0.1 mg/bovine serum albumin, 50 μg/ml insulin, 5.0 μg/ml and 5.0 μg/ml sodium DMEM alone at 37° C. in 95% air/5% CO2. The cartilage was precultured for 2 days and medium was changed at day 0. Thereafter medium (as described in pellet cultures) was replaced every four days. Various CNBr fragments and/or synthetic peptides were freshly added from day 0 at each medium change. Thereafter, cartilage explants and conditioned media were harvested and stored at −20° C. In order to show the specificity of the peptide fragments of one embodiment on degradation of type II collagen as compared with proteoglycan, primarily aggrecan, sulphated glycosaminoglycan (GAG) content was determined in both the α-chymotrypsin and proteinase K digests for total proteoglycan (predominantly aggrecan) content in cell pellets, cartilage explants and also in conditioned media. Measurement of release of proteoglycan into media was tested using dimethylene blue dye binding as previously described (Dahlberg, L. et al. (2000) supra).

[2] = tested on: adult bovine articular cartilage; assay: RT-PCR of hypertrophy and degradation genes in bovine articular cartilage explant culture
Method: (§3) Total RNA was isolated from chondrocytes or cartilage explants by the guanidine isothiocyanate procedure according to Chomczynski and Sacchi (Chomczynski, P. et al., Anal. Biochem. 162:156-9 (1987)) with some modifications. Briefly, chondrocytes (1-2×10^6 cells) or cartilage tissue (200-300 mg) were solubilized in solution D (4 M guanidine isothiocyanate, 20 mM sodium acetate/pH 5.2, 0.1 M 2-mercaptoethanol and 0.5% N-lauroylsarcosine). One volume of isopropanol was added to the mixture and all proteins and nucleic acids were precipitated at −20° C. overnight. […] The total RNA pellet was resuspended in diethyl pyrocarbonate-treated (DEPC) water and the amount of total RNA was measured by reading optical density at 260 nm. […]
(§4) One microliter of reverse transcribed total RNA was incubated with 2.5 U of AmpliTaq™ DNA polymerase (Perkin Elmer, Branchburg, N.J.) in 50 mM KCl, 1.5 mM MgCl2, 10 mM Tris-HCl, pH 8.3, 200 μM dNTP mix and 0.5 μmol each of oligonucleotide primers in 50 μl reaction mixture. […] The digital images of the gel were analyzed using NIH 1.60 imaging software to evaluate the pixel intensity of the band of the PCR products. […] The band intensities were determined to be below saturation. […]
(§5) MMP-13 expression was maximal by 12 days. Gene expression was determined by RT-PCR analyses of mRNA in the manner used to detect expression of MMPs and cytokines described elsewhere. […]

MMP-1 = assay: ELISA for MMP-1 in conditioned medium of human chondrocytes; settings: 48 hours; CB12-II 50 μM, TNF-α 50 ng/ml
Method: as §1, §2

[3] = tested on: adult human articular cartilage; assay: RT-PCR of hypertrophy and degradation genes in human articular cartilage explant culture
Method: as §3, §4, §5

[4] = induction within a 24-48 hr period

For ERGPPGPQGARGFPGTPGLPGVK [CB12-II], the “MMP-13 secretion into medium versus no peptide and negative control peptide (USP)” value (MMP-13) was “significantly higher”, the proteoglycan breakdown [1] was “no significant effect” and the “time at which MMP-13 expression was maximal” value [2] was at most 12 days. For the same sequence, the “expression of genes characteristic of chondrocyte hypertrophy (COLX, MMP-9, TGF-B1, IHH, MMP-13, CBFA1, SOX 9, bFGF, pTHrP, caspase-3, MT1-MMP, IL-1B, MMP-1)” value [2, 4] was “rapid induction”, the “MMP-1 secretion into medium versus no peptide and negative control peptide (USP)” value (MMP-1) was “significantly higher” and the “time at which MMP-13 expression was maximal” value [3] was at most 12 days. The “expression of genes characteristic of chondrocyte hypertrophy (COLX, MMP-9, TGF-B1, IHH, MMP-13, CBFA1, SOX 9, bFGF, pTHrP, caspase-3, MT1-MMP, IL-1B, MMP-1)” value [3, 4] was “rapid induction”.
